Test results as given in BigSolDB 2.1.
Values belong to the molecule of their own block, whether it stands above or below them.

solubility (mole fraction) (in THF, 283.15 K): 0.000217 | solubility (mole fraction) (in THF, 288.15 K): 0.000286 | solubility (mole fraction) (in THF, 293.15 K): 0.000359 | solubility (mole fraction) (in THF, 298.15 K): 0.000471 | solubility (mole fraction) (in THF, 303.15 K): 0.000618 | solubility (mole fraction) (in THF, 308.15 K): 0.000763 | solubility (mole fraction) (in THF, 313.15 K): 0.000961 | solubility (mole fraction) (in THF, 318.15 K): 0.0012 | solubility (mole fraction) (in THF, 323.15 K): 0.00151 | solubility (mole fraction) (in water, 298.15 K): 0.00248
Compound: O=c1[nH]cc(F)c(=O)[nH]1

solubility (mole fraction) (in methanol, 293.15 K): 0.00941 | solubility (mole fraction) (in methanol, 298.15 K): 0.0109 | solubility (mole fraction) (in methanol, 303.15 K): 0.0128 | solubility (mole fraction) (in methanol, 308.18 K): 0.015 | solubility (mole fraction) (in methanol, 313.15 K): 0.0175 | solubility (mole fraction) (in methanol, 318.15 K): 0.02
Compound: CO[C@H]1O[C@H](CO)[C@@H](O)[C@H](O)[C@H]1O

solubility (mole fraction) (in acetone, 293 K): 0.0183 | solubility (mole fraction) (in acetone, 298 K): 0.0208 | solubility (mole fraction) (in acetone, 303 K): 0.0236 | solubility (mole fraction) (in acetone, 308 K): 0.0273 | solubility (mole fraction) (in acetone, 313 K): 0.0316 | solubility (mole fraction) (in acetone, 318 K): 0.0365
Compound: COc1ccc2c(c1)c(CC(=O)O)c(C)n2C(=O)c1ccc(Cl)cc1

solubility (mole fraction) (in water, 293.25 K): 0.00196 | solubility (mole fraction) (in water, 298.13 K): 0.0021 | solubility (mole fraction) (in water, 303.15 K): 0.00224 | solubility (mole fraction) (in water, 308.18 K): 0.00241 | solubility (mole fraction) (in water, 313.15 K): 0.00255 | solubility (mole fraction) (in water, 318.17 K): 0.00272
Compound: N[C@@H](C(=O)O)c1ccc(O)cc1

Compound: CN1COCN(Cc2cnc(Cl)s2)C1=N[N+](=O)[O-]
solubility (mole fraction) (in methanol, 288.15 K): 0.00111 | solubility (mole fraction) (in methanol, 293.15 K): 0.00141 | solubility (mole fraction) (in methanol, 298.15 K): 0.00169 | solubility (mole fraction) (in methanol, 303.15 K): 0.00225 | solubility (mole fraction) (in methanol, 308.15 K): 0.00294 | solubility (mole fraction) (in methanol, 313.15 K): 0.00397 | solubility (mole fraction) (in methanol, 318.15 K): 0.00486 | solubility (mole fraction) (in methanol, 323.15 K): 0.0063

solubility (mole fraction) (in water, 278.15 K): 0.0102 | solubility (mole fraction) (in water, 283.15 K): 0.012 | solubility (mole fraction) (in water, 288.15 K): 0.014 | solubility (mole fraction) (in water, 293.15 K): 0.0165 | solubility (mole fraction) (in water, 298.15 K): 0.0187 | solubility (mole fraction) (in water, 303.15 K): 0.0215 | solubility (mole fraction) (in water, 308.15 K): 0.0245 | solubility (mole fraction) (in water, 313.15 K): 0.0288
Compound: Cc1ncc(CO)c(CO)c1O.Cl

solubility (mole fraction) (in water, 298.15 K): 0.000603
Compound: O=c1cc(Cl)[nH]c(=O)[nH]1

solubility (mole fraction) (in water, 293.15 K): 5.05e-05 | solubility (mole fraction) (in water, 296.85 K): 6.15e-05 | solubility (mole fraction) (in water, 300.75 K): 8.19e-05 | solubility (mole fraction) (in water, 304.55 K): 8.52e-05 | solubility (mole fraction) (in water, 308.25 K): 9.71e-05 | solubility (mole fraction) (in water, 312.15 K): 0.000122 | solubility (mole fraction) (in water, 316.25 K): 0.000147
Compound: CS(=O)(=O)c1ccc([C@@H](O)[C@@H](CF)NC(=O)C(Cl)Cl)cc1

Compound: Cc1ccccc1
solubility (mole fraction) (in water, 295.7 K): 0.000112

solubility (mole fraction) (in water, 293.15 K): 1.38e-05 | solubility (mole fraction) (in water, 298.15 K): 1.65e-05 | solubility (mole fraction) (in water, 303.15 K): 2.01e-05 | solubility (mole fraction) (in water, 308.15 K): 2.49e-05 | solubility (mole fraction) (in water, 313.15 K): 3.14e-05 | solubility (mole fraction) (in water, 323.15 K): 4.74e-05 | solubility (mole fraction) (in water, 333.15 K): 7.01e-05
Compound: C=CC1=C(C(=O)O)N2C(=O)[C@@H](NC(=O)/C(=N\OCC(=O)O)c3csc(N)n3)[C@H]2SC1

solubility (mole fraction) (in water, 298.15 K): 0.000373
Compound: O=c1[nH]cc(I)c(=O)[nH]1

solubility (mole fraction) (in water, 276.5 K): 4.62e-05 | solubility (mole fraction) (in water, 282.2 K): 4.29e-05 | solubility (mole fraction) (in water, 296.2 K): 4.17e-05
Compound: C1CCCC1

solubility (mole fraction) (in methanol, 288.15 K): 0.115 | solubility (mole fraction) (in methanol, 293.15 K): 0.122 | solubility (mole fraction) (in methanol, 298.15 K): 0.131 | solubility (mole fraction) (in methanol, 303.15 K): 0.14 | solubility (mole fraction) (in methanol, 308.15 K): 0.152 | solubility (mole fraction) (in methanol, 313.15 K): 0.164 | solubility (mole fraction) (in methanol, 318.15 K): 0.173 | solubility (mole fraction) (in methanol, 323.15 K): 0.183
Compound: NCCC(=O)O

solubility (mole fraction) (in ethanol, 303.15 K): 0.0171 | solubility (mole fraction) (in ethanol, 305.65 K): 0.0179 | solubility (mole fraction) (in ethanol, 308.15 K): 0.0185 | solubility (mole fraction) (in ethanol, 310.65 K): 0.0192 | solubility (mole fraction) (in ethanol, 313.15 K): 0.0202 | solubility (mole fraction) (in ethanol, 315.65 K): 0.0212 | solubility (mole fraction) (in ethanol, 318.15 K): 0.022 | solubility (mole fraction) (in ethanol, 320.65 K): 0.023 | solubility (mole fraction) (in ethanol, 323.15 K): 0.024
Compound: Nc1cc(Cl)nnc1Cl
